Source: patent US10888555B2 (CONARIS RESEARCH INSTITUTE AG, priority 2013, dated 2021)
“Also recorded” adds a separate entry of the source.

How the values were obtained:
[1] = test system: C57BL/6J mice; experiment: Acute tunicamycin-induced NAFLD/NASH model: histological liver damage score; type: in vivo, mouse; settings: 60 mg/kg/d in drinking water, 3 mice with and 3 without NAM, 48 h after tunicamycin 2 μg/g i.p., FIG. 4
Procedure: In order to extend the findings of von Schönfels et al. 2014 (Liver Int. doi: 10.1111/liv.12476) with NA in a chronic model of NAFLD, the effect of NAM was investigted in an acute murine model of NASH (Lee et al. 2012, Toxicol. Lett. 211:29). C57BL/6J mice (n=6; age: 12-13 weeks) were injected intraperitoneally with tunicamycin (TM; 2 μg/g body weight). After 48 h, the mice were sacrificed and liver tissue was collected for histological analysis of signs of NAFLD/NASH as described previously (Lee et al. 2012, Toxicol. Lett. 211:29). NAM was administered to three of the six mice in the drinking water from 2 days before the TM challenge until the end of the experiment. NAM was administered at 0.4 g/l, corresponding to approximately 60 mg/kg/d (assumptions from general averages: body weight of a mouse: 20 g; water intake: 3 mL/mouse/d; 3 mL with a concentration of 0.4 g/L contained 1.2 mg NAM, resulting in a dose of approximately 60 mg/kg/d).
Paraffin-embedded liver tissue sections (3 μm) from mice after TM challenge were subjected to hematoxylin/eosin staining and scored in a blinded manner. Hepatic steatosis, hepatocyte ballooning and inflammation were determined in a scoring system modified from Brunt 2001 (Semin. Liver Dis. 21:3). The stage scores were based on liver fibrosis. The 0-3 grading includes: 0, none; 1, mild; 2, moderate; and 3, severe.

[2] = cited from earlier work

Row | SMILES | tunicamycin-induced NAFLD/NASH liver damage score [1] | recommended maximum nutritional doses ([2]; adults, SCF/CS/NUT/UPPLEV/39) | doses above which side effects including flush, tachycardia, blood pressure dysregulation and diarrhea have to be anticipated ([2]; Carlson 2005, German Federal Institute for Risk Assessment) [mg/day] | tolerable upper intake level without anticipated side effects ([2]; adults, European Scientific Committee on Food) [mg/day]
1 | NC(=O)c1cccnc1 [NAM, nicotinamide] | small, but significant reduction; also recorded: moderate, but significant protection | up to 900 mg/d | – | –
2 | O=C(O)c1cccnc1 [nicotinic acid] | – | – | 100 to 300 | 10
